Consider eight compounds from article PMC3677961 (Chemical biology & drug design, 2008).

Data set [1] concerns L. donovani axenic amastigotes. The note with it: cited from earlier work.
Another data set deals with T. b. brucei. The settings on record: cited from earlier work.
For data set [2] the following is noted: phase I and phase II clinical trials; cited from earlier work.
The next data set has as its system mammalian tubulin. The note with it: read-out: IC50 against mammalian tubulin; cited from earlier work.
Data set [3] concerns the target T1, colchicine site of mammalian tubulin (Sus scrofa, UniProt P02550+P02554). The note with it: cited from earlier work.
For data set [4] the following is noted: cited from earlier work.
Data set [5] addresses T1, colchicine site of mammalian tubulin. The experiment in a line: Competition with MTPT for the colchicine site. It counts as binding. The note with it: 5 μM mammalian tubulin, 5 μM MTPT.
Data set [6] deals with L. donovani axenic amastigotes. It counts as cell-based. The note with it: Leishmania donovani, read-out: IC50 versus L. donovani axenic amastigotes.
For a further data set, the system named is Vero cells. The experiment in a line: Vero cell cytotoxicity. It counts as cell-based, African green monkey. The settings on record: Chlorocebus sabaeus, read-out: IC50 versus Vero Cells.
The test system of another data set is LNCaP. Nature of the data set: SRB growth inhibition assay, LNCaP prostate cancer cell line. It counts as cell-based. The note with it: Homo sapiens, 96 h, read-out: Cancer cell line IC50, LNCaP.
The subject of the next data set is PC3. Nature of the data set: SRB growth inhibition assay, PC-3 prostate cancer cell line. It counts as cell-based. The settings on record: Homo sapiens, PC-3, 96 h, read-out: Cancer cell line IC50, PC3.
The next data set relates to HT29. Nature of the data set: SRB growth inhibition assay, HT-29 colon cancer cell line. It counts as cell-based. The settings on record: Homo sapiens, HT-29, 96 h, read-out: Cancer cell line IC50, HT29.
The subject of the next data set is PPC1. Nature of the data set: SRB growth inhibition assay, PPC-1 prostate cancer cell line. It counts as cell-based. The note with it: Homo sapiens, PPC-1, 96 h, read-out: Cancer cell line IC50, PPC1.
The subject of the next data set is MCF7. Nature of the data set: SRB growth inhibition assay, MCF-7 breast cancer cell line. It counts as cell-based. The note with it: Homo sapiens, MCF7, 96 h, read-out: Cancer cell line IC50, MCF7.
The subject of the next data set is TSU-Pr1. Nature of the data set: SRB growth inhibition assay, TSU-Pr1 bladder cancer cell line. It counts as cell-based. The settings on record: Homo sapiens, TSU-Pr1, 96 h, read-out: Cancer cell line IC50, TSU-Pr1.

Turning to `CCCN(CCC)c1c([N+](=O)[O-])cc(S(=O)(=O)Nc2ccccc2)cc1[N+](=O)[O-]` [Compound 2, N1-phenyl-3,5-dinitro-N4,N4-di-n-propylsulfanilamide], the “Activity against Leishmania donovani axenic amastigotes (in words)” value in data set [1] is listed as “low micromolar activity”. The “Activity against Trypanosoma brucei bloodstream forms (in words)” value in the data set on T. b. brucei is on record as “mid-nanomolar activity”.
Broadly, the IC50 is the concentration that inhibits the measured activity by half. On to `COc1ccc(S(=O)(=O)Nc2cccnc2Nc2ccc(O)cc2)cc1` [Compound 28], for which the Oral bioavailability result in data set [2] is given as “orally bioavailable”. Also, the IC50 in the data set on mammalian tubulin is 2200 nM. In addition, in data set [3], the “Binding site on mammalian tubulin” value is reported as “bind to the colchicine site”.
As for `COc1ccc(NS(=O)(=O)c2c(F)c(F)c(F)c(F)c2F)cc1F` [Compound 29], in the data set on mammalian tubulin, the IC50 is around 2000 nM. Also, in [4], the “Toxicity in phase II clinical trials” value is “low levels of toxicity”. Further, in data set [3], the “Binding site on mammalian tubulin” value is reported as “bind to the colchicine site”.
Regarding `COc1ccc(NS(=O)(=O)c2c(F)c(F)c(F)c(F)c2F)cc1NC(N)=O` [Compound 30], the IC50 with mammalian tubulin was 2100 nM.
For `COc1ccc(CCc2cc(OC)c(OC)c(OC)c2)cc1O` [Dihydrocombetastatin A4, dihydrocombretastatin A4], the “Inhibition (%) of MTPT binding in presence of competitors” value is 30 ± 1% in data set [5] (2 μM competitor), 69 ± 2% in [5] (20 μM competitor) and 74 ± 2% in [5] (50 μM competitor).
With `N=C(N)c1ccc(OCCCCCOc2ccc(C(=N)N)cc2)cc1` [Pentamidine], the IC50 in data set [6] was determined as 3200 ± 1500 nM.
On to `COc1cc([C@@H]2c3cc4c(cc3[C@H](O)[C@H]3COC(=O)[C@H]23)OCO4)cc(OC)c1OC` [Podophyllotoxin], for which, in the data set with Vero cells, the IC50 is 50 ± 30 nM.
As for `CC[C@]1(O)C[C@@H]2CN(CCc3c([nH]c4ccccc34)[C@@](C(=O)OC)(c3cc4c(cc3OC)N(C)[C@H]3[C@@](O)(C(=O)OC)[C@H](OC(C)=O)[C@]5(CC)C=CCN6CC[C@]43[C@@H]65)C2)C1` [Vinblastine], the IC50 in the data set with LNCaP is 3.4 ± 0.9 nM; with PC3 it was 1.4 ± 0.3 nM; in the data set on HT29, 2.4 ± 0.2 nM; in the data set on PPC1, 1 ± 0.4 nM; with MCF7, 1.3 ± 0.4 nM; in the data set with TSU-Pr1, 1.6 ± 0.08 nM.
